Measurements reported in PubChem BioAssay (NCI).
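How tested: cells in 96-well plates exposed to compound for 48 hours at five concentrations. TGI: concentration producing complete growth inhibition.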

Columns and labels:
Assay in all cases: growth of human tumour cells (NCI), 48 h
[1] = system: T-47D breast
[2] = system: UACC-62 melanoma
[3] = system: HCT-15 colon
[4] = system: IGROV1 ovarian
[5] = system: MDA-MB-435
[6] = system: SN12C renal
[7] = system: COLO 205 colon
[8] = system: SF-295 CNS
[9] = system: 786-0 renal
[10] = system: TK-10 renal
[11] = system: DU-145 prostate
[12] = system: SK-MEL-2 melanoma
[13] = system: MCF7 breast
[14] = system: NCI-H460 lung
[15] = system: SK-MEL-5 melanoma
[16] = system: OVCAR-5 ovarian
[17] = system: OVCAR-8 ovarian
[18] = system: NCI-H226 lung
[19] = system: UACC-257 melanoma
[20] = system: MDA-MB-231 breast
[21] = system: NCI-H522 lung
[22] = system: HCC-2998 colon
[23] = system: K-562 leukemia
[24] = system: HS 578T breast
[25] = system: HOP-62 NSCLC
[26] = system: U251 CNS
[27] = system: SF-539 CNS
[28] = system: MOLT-4 leukemia
[29] = system: HCT-116 colon
[30] = system: OVCAR-3 ovarian
[31] = system: M14 melanoma
[32] = system: NCI/ADR-RES ovarian
[33] = system: MDA-N
[34] = system: A549 NSCLC
[35] = system: PC-3 prostate
[36] = system: CCRF-CEM leukemia
[37] = system: HL-60(TB) leukemia
[38] = system: OVCAR-4 ovarian
[39] = system: CAKI-1 renal
[40] = system: HT29 colon
[41] = system: NCI-H23 lung
[42] = system: RXF 393 renal
[43] = system: A498 renal
[44] = system: EKVX NSCLC
[45] = system: SF-268 CNS
[46] = system: MALME-3M melanoma
[47] = system: SK-OV-3 ovarian
[48] = system: BT-549 breast
[49] = system: SNB-75 CNS
[50] = system: HOP-92 NSCLC
[51] = system: SNB-19 CNS
[52] = system: SW-620 colon
[53] = system: LOX IMVI melanoma
[54] = system: UO-31 renal
[55] = system: ACHN renal
[56] = system: KM12 colon
[57] = system: SK-MEL-28 melanoma
[58] = system: SR leukemia

Compound c1ccc2nn(C3CCCO3)nc2c1 (centres undefined) has a TGI [1] greater than 100 µM, a TGI [2] greater than 100 µM and a TGI [3] greater than 100 µM. It also gave a TGI [4] greater than 100 µM, a TGI [5] greater than 100 µM and a TGI [6] greater than 100 µM. The TGI [7] was greater than 100 µM, the TGI [8] was greater than 100 µM and the TGI [9] was greater than 100 µM. For the same compound, the TGI [10] was greater than 100 µM, the TGI [11] was greater than 100 µM and the TGI [12] was greater than 100 µM. It also gave a TGI [13] greater than 100 µM, a TGI [14] greater than 100 µM and a TGI [15] greater than 100 µM. The TGI [16] was greater than 100 µM, the TGI [17] was greater than 100 µM and the TGI [18] was greater than 100 µM. The TGI [19] was greater than 100 µM, the TGI [20] was greater than 100 µM and the TGI [21] was greater than 100 µM. It also gave a TGI [22] greater than 100 µM, a TGI [23] greater than 100 µM and a TGI [24] greater than 100 µM. It also gave a TGI [25] greater than 100 µM, a TGI [26] greater than 100 µM and a TGI [27] greater than 100 µM. The TGI [28] was greater than 100 µM, the TGI [29] was greater than 100 µM and the TGI [30] was greater than 100 µM. The TGI [31] was greater than 100 µM, the TGI [32] was greater than 100 µM and the TGI [33] was greater than 100 µM. It also gave a TGI [34] greater than 100 µM, a TGI [35] greater than 100 µM and a TGI [36] greater than 100 µM. It also gave a TGI [37] greater than 100 µM, a TGI [38] greater than 100 µM and a TGI [39] greater than 100 µM. It also gave a TGI [40] greater than 100 µM, a TGI [41] greater than 100 µM and a TGI [42] greater than 100 µM. It also gave a TGI [43] greater than 100 µM, a TGI [44] greater than 100 µM and a TGI [45] greater than 100 µM. For the same compound, the TGI [46] was greater than 100 µM, the TGI [47] was greater than 100 µM and the TGI [48] was greater than 100 µM. The TGI [49] was greater than 100 µM.

COC(=O)[C@]1(C)CCC[C@]2(C)[C@@H](CCC(=O)C(C)C)[C@]3(C=O)O[C@@H]3C[C@H]21 showed a TGI [1] of 95.7 µM, a TGI [2] greater than 100 µM and a TGI [3] greater than 100 µM. For the same compound, the TGI [50] was greater than 100 µM, the TGI [51] was greater than 100 µM and the TGI [5] was 99.6 µM. For the same compound, the TGI [52] was greater than 100 µM, the TGI [6] was greater than 100 µM and the TGI [7] was greater than 100 µM. It also gave a TGI [8] greater than 100 µM, a TGI [9] greater than 100 µM and a TGI [53] of 92.3 µM. It also gave a TGI [10] greater than 100 µM, a TGI [11] greater than 100 µM and a TGI [12] greater than 100 µM. For the same compound, the TGI [13] was greater than 100 µM, the TGI [14] was greater than 100 µM and the TGI [15] was greater than 100 µM. It also gave a TGI [16] greater than 100 µM, a TGI [17] greater than 100 µM and a TGI [54] of 48.4 µM. It also gave a TGI [18] greater than 100 µM, a TGI [19] greater than 100 µM and a TGI [55] of 57.3 µM. For the same compound, the TGI [20] was greater than 100 µM, the TGI [21] was 46.6 µM and the TGI [22] was greater than 100 µM. The TGI [23] was greater than 100 µM, the TGI [24] was greater than 100 µM and the TGI [56] was greater than 100 µM. It also gave a TGI [26] greater than 100 µM, a TGI [27] greater than 100 µM and a TGI [28] greater than 100 µM. The TGI [29] was 57.7 µM, the TGI [57] was greater than 100 µM and the TGI [30] was greater than 100 µM. The TGI [31] was greater than 100 µM, the TGI [32] was 90.4 µM and the TGI [33] was 75.1 µM. For the same compound, the TGI [34] was greater than 100 µM, the TGI [58] was greater than 100 µM and the TGI [35] was greater than 100 µM. For the same compound, the TGI [36] was greater than 100 µM, the TGI [37] was greater than 100 µM and the TGI [38] was 87.3 µM. The TGI [39] was 31.9 µM, the TGI [40] was greater than 100 µM and the TGI [41] was greater than 100 µM. It also gave a TGI [42] of 51.7 µM, a TGI [44] greater than 100 µM and a TGI [45] greater than 100 µM. For the same compound, the TGI [46] was greater than 100 µM, the TGI [47] was greater than 100 µM and the TGI [48] was 77.3 µM. For the same compound, the TGI [49] was 63.9 µM.
